Paper PMC12290673, “Antileishmanial and Antitoxoplasmal Activities of 1,4-Dihydropyridines” (ACS Omega, 2025)

Key:
[1] = system: L. major promastigotes; test: Activity against L. major promastigotes (MTT, 72 h); assay type: cell-based, Leishmania major; settings: Leishmania major, mean ± SD, read-out: EC50 L. major prom
Description: (§1) L. major promastigotes were isolated and maintained according to a described method. BALB/c mice were injected at the hind footpads with 1 × 10^6 L. major metacyclic promastigotes. L. major amastigotes were collected from the infected mice. After 8 weeks had elapsed since inoculation, Schneider’s medium (Invitrogen, USA) containing antibiotics and 10% FBS was used to transform isolated amastigotes into promastigotes by incubation at 26 °C. Amastigote-derived promastigotes with less than five in vitro passages were only used for infection.
To assess the activity of the compounds against L. major promastigotes, 10^6 promastigotes/mL were cultured in 96-well plates in Schneider’s medium with 10% FBS. Then, the compounds or amphotericin B (AmB) were added to obtain the final concentrations (50, 25, 12.5, 6.25, 3.13, 1.65, 0.75, or 0.37 μg mL^–1). Negative control wells contained cultures with DMSO (1%) only. Plates were incubated at 26 °C for 72 h to evaluate the antiproliferative effect. The colorimetric MTT method was used to count viable promastigotes under a microplate absorbance spectrophotometer (xMark, Bio-Rad, USA) at 570 nm. The experiment was performed in triplicate.

[2] = system: L. major amastigotes; test: Activity against L. major amastigotes in peritoneal macrophages (percentage of infected macrophages, Giemsa, 72 h); assay type: cell-based, Leishmania major; settings: Leishmania major, intracellular amastigotes, mean ± SD, read-out: EC50 L. major ama
Description: as §1
(§2) Female BALB/c mouse peritoneal macrophages (6–8 weeks old) were used to culture L. major amastigotes to assess the activity of the compounds against amastigotes. Briefly, 1 mL of 3% Brewer’s thioglycollate medium/mouse was injected into the peritoneal cavity. After 4 days, the abdominal skin was removed to expose the peritoneal wall. Then, 3 mL of RPMI 1640 medium was injected before cells were collected by aspiration, whereupon 96-well plates containing RPMI 1640 medium with 10% FBS were used to culture 5 × 10^4 cells/well, which were incubated at 37 °C under 5% CO2 for 4 h. After washing with PBS, RPMI 1640 medium containing 5 × 10^5 promastigotes were added to each well. Next, the cells were incubated at 37 °C under humidified 5% CO2 for 24 h to enhance infection and differentiation of amastigotes. Washing with PBS several times removed free promastigotes. Fresh complete RPMI 1640 medium containing one of the tested compounds or AmB at the desired final concentration (50, 25, 12.5, 6.25, 3.13, 1.65, 0.75, or 0.37 μg mL^–1) was added and incubated at 37 °C under a humidified 5% CO2 atmosphere for 72 h. DMSO (1%), only in complete RPMI media, was used as the negative control. The percentage of infected macrophages was assessed microscopically after the medium was removed, followed by washing with PBS, fixation with methanol, and staining with Giemsa. The reading was performed in triplicate. Handling of the laboratory animals followed the instructions and rules of the Committee of Research Ethics, Deanship of Scientific Research, Qassim University, permission number 20–03–20.

[3] = system: T. gondii tachyzoites (RH strain); test: Anti-Toxoplasma activity (infection index in Vero cells, 72 h); assay type: cell-based, Toxoplasma gondii; settings: Toxoplasma gondii, Vero, mean ± SD
Description: Tachyzoites of the T. gondii RH strain were cultivated in Vero cells according to a published method. Complete RPMI 1640 medium (Invitrogen, USA) with 10% fetal bovine serum (FBS, Invitrogen, USA) was used to culture Vero cells in 96-well plates (5 × 10^3 cells/well in 200 μL of medium), which were incubated at 37 °C and under 5% CO2 for 24 h. This was followed by washing with phosphate-buffered saline (PBS) to remove the medium. Then, RPMI 1640 medium with 2% FBS containing T. gondii tachyzoites (RH strain) at a ratio of 5 (parasite): 1 (Vero cells) was added. After incubation at 37 °C and under 5% CO2 for 5 h, the cells were washed with PBS and overlaid with medium containing one of the tested compounds or atovaquone (ATO) at 50, 25, 12.5, 6.25, 3.13, 1.65, 0.75, or 0.37 μg mL^–1.
After incubation at 37 °C and under 5% CO2 for 72 h, the cells were stained with 1% toluidine before being examined under an inverted photomicroscope (MCD-400, Leica, Japan) to determine the T. gondii infection index (number of infected cells from 200 tested cells). The experiment was performed in triplicate.

[4] = system: Vero cells; test: Cytotoxicity assay (MTT), Vero cells; assay type: cell-based, African Green Monkey; settings: Chlorocebus sabaeus, 72 h, mean ± SD
Description: (§3) The MTT colorimetric assay was conducted to assess the cytotoxicity of the compounds according to a method described previously. Briefly, Vero cells or macrophages were cultured in 96-well plates (5 × 10^3 cells/well/200 μL) in RPMI 1640 medium with 10% FBS at 37 °C and under 5% CO2 for 24 h. Thereafter, PBS was used to wash the cells. Then, the compounds in RPMI complete medium with 10% FBS (at varying concentrations of 50, 25, 12.5, 6.25, 3.13, 1.65, 0.75, or 0.37 μg mL^–1) were added to 96-well plates and incubated for 72 h. Cells treated with a medium containing only DMSO (1%) were used as the negative control. After washing, MTT (1 mg mL^–1 in RPMI 1640 medium) was added to each well. The cells were incubated for 4 h, and the supernatant was removed. Next, 150 μL of DMSO was added, and a microplate absorbance spectrophotometer was applied for colorimetric analysis (λ = 540 nm). Cytotoxic effects were expressed by IC50 values (concentration that caused a 50% reduction of viable cells). The experiment was performed in triplicate.

[5] = system: macrophages; test: Cytotoxicity assay (MTT), macrophages; assay type: cell-based, BALB/c mouse; settings: Mus musculus, Macrophage; 72 h, mean ± SD; read-out: IC50 macro
Description: as §2, §3

[6] = system: L. amazonensis amastigotes; design: method as in Oliveira and co-workers; settings: ref Oliveira and co-workers; read-out: IC50 against L. amazonensis amastigotes; cited from earlier work

CCOC(=O)C1=C(C)NC2=C(C(=O)CC(C)(C)C2)C1c1cccc(F)c1 (stereo not drawn) [Compound 7]
> 58.2 µM: EC50 [1] | EC50 [2] | EC50 [3] | IC50 [4] | IC50 [5]
12.5 µM: IC50 [6]
